Molecular target: T1, His-hMAGL (recombinant polyhistidine tagged human MAGL protein) (Homo sapiens, UniProt Q99685)
T1 construct: made in house; host or cells: E. coli BL21(DE3)
T1 sequence (Q99685 1-303): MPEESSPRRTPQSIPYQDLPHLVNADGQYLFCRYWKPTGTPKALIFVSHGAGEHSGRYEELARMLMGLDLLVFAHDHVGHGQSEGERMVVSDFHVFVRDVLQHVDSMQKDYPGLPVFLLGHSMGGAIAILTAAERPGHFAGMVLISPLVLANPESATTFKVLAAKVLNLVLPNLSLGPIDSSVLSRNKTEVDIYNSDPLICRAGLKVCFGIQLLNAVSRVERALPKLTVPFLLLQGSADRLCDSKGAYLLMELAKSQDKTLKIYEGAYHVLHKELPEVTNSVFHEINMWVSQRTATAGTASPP
Experiment: Measurement of MAGL inhibitory activity (arachidonic acid production from 2-arachidonylglycerol, RapidFire-mass spectrometry)
Assay type: biochemical
Conditions: MAGL inhibitory rate, test compound 10 μM, 60 min preincubation, 2-arachidonylglycerol substrate
Method in brief: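 Arachidonic acid formed was quantified by online solid-phase extraction and triple-quadrupole MS in negative SRM mode against a d8 internal standard. Reaction: recombinant His-hMAGL (7.5 ng/mL, pH 7.5 Tris buffer with Triton X-100 and BSA) plus 2-AG (5 μL of 150 μM stock) for 10 min at room temperature, quenched with 2% formic acid. Percent inhibition corrected for enzyme-free background.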

Row | Structure (SMILES) | inhibition at 10 µM
1 | Cc1cc(F)c(F)c2sc(C(=O)N3CCC4(COC(=O)N4)C3)c(Cl)c12 (stereo not shown) [Example 328, 7-((3-chloro-6,7-difluoro-4-methyl-1-benzothiophen-2-yl)carbonyl)-3-oxa-1,7-diazaspiro[4.4]nonan-2-one] | 99%
2 | Cc1c(OC(F)(F)F)ccc2c(Cl)c(C(=O)N3CCC4(COC(=O)N4)C3)sc12 (stereo not shown) [Example 329, 7-((3-chloro-7-methyl-6-(trifluoromethoxy)-1-benzothiophen-2-yl)carbonyl)-3-oxa-1,7-diazaspiro[4.4]nonan-2-one] | 100%
3 | Cc1cc(OC(F)(F)F)cc2sc(C(=O)N3CCC4(COC(=O)N4)C3)c(Cl)c12 (stereo not shown) [Example 331, 7-((3-chloro-4-methyl-6-(trifluoromethoxy)-1-benzothiophen-2-yl)carbonyl)-3-oxa-1,7-diazaspiro[4.4]nonan-2-one] | 101%
4 | O=C1NC2(CCN(C(=O)c3sc4cc(F)cc(Cl)c4c3Cl)C2)CO1 (stereo not shown) [Example 332, 7-((3,4-dichloro-6-fluoro-1-benzothiophen-2-yl)carbonyl)-3-oxa-1,7-diazaspiro[4.4]nonan-2-one] | 100%
5 | O=C1NC2(CCN(C(=O)c3sc4c(F)c(C(F)(F)F)ccc4c3C(F)F)C2)CO1 (stereo not shown) [Example 333, 7-((3-(difluoromethyl)-7-fluoro-6-(trifluoromethyl)-1-benzothiophen-2-yl)carbonyl)-3-oxa-1,7-diazaspiro[4.4]nonan-2-one] | 99%
6 | O=C1NC2(CCN(C(=O)c3sc4cc(C(F)(F)F)cc(F)c4c3Cl)C2)CO1 (stereo not shown) [Example 334, 7-((3-chloro-4-fluoro-6-(trifluoromethyl)-1-benzothiophen-2-yl)carbonyl)-3-oxa-1,7-diazaspiro[4.4]nonan-2-one] | 100%
7 | O=C1NC2(CO1)CN(C(=O)c1ccc(-c3cccc(C4(C(F)(F)F)CC4)c3)c(F)c1)C2 [Example 335, 2-((2-fluoro-3′-(1-(trifluoromethyl)cyclopropyl)biphenyl-4-yl)carbonyl)-7-oxa-2,5-diazaspiro[3.4]octan-6-one] | 100%
8 | O=C1NC2(CCN(C(=O)c3sc4c(F)c(OC(F)(F)F)cc(F)c4c3Cl)C2)CO1 (stereo not shown) [Example 336, 7-((3-chloro-4,7-difluoro-6-(trifluoromethoxy)-1-benzothiophen-2-yl)carbonyl)-3-oxa-1,7-diazaspiro[4.4]nonan-2-one] | 100%
9 | Cc1c(C(F)(F)F)ccc2c(Cl)c(C(=O)N3CCC4(COC(=O)N4)C3)sc12 (stereo not shown) [Example 337, 7-((3-chloro-7-methyl-6-(trifluoromethyl)-1-benzothiophen-2-yl)carbonyl)-3-oxa-1,7-diazaspiro[4.4]nonan-2-one] | 100%
10 | O=C1NC2(CCN(C(=O)c3sc4c(F)c(OC(F)(F)F)ccc4c3Cl)C2)CO1 (stereo not shown) [Example 338, 7-((3-chloro-7-fluoro-6-(trifluoromethoxy)-1-benzothiophen-2-yl)carbonyl)-3-oxa-1,7-diazaspiro[4.4]nonan-2-one] | 100%
11 | O=C1NC2(CCN(C(=O)c3sc4cc(OC(F)(F)F)c(F)cc4c3Cl)C2)CO1 (stereo not shown) [Example 339, 7-((3-chloro-5-fluoro-6-(trifluoromethoxy)-1-benzothiophen-2-yl)carbonyl)-3-oxa-1,7-diazaspiro[4.4]nonan-2-one] | 100%
12 | O=C1NC2(CCN(C(=O)c3sc4c(F)c(F)cc(Cl)c4c3Cl)C2)CO1 (stereo not shown) [Example 340, 7-((3,4-dichloro-6,7-difluoro-1-benzothiophen-2-yl)carbonyl)-3-oxa-1,7-diazaspiro[4.4]nonan-2-one] | 99%
13 | Cc1cc(C(F)(F)F)cc2sc(C(=O)N3CCC4(COC(=O)N4)C3)c(Cl)c12 (stereo not shown) [Example 341, 7-((3-chloro-4-methyl-6-(trifluoromethyl)-1-benzothiophen-2-yl)carbonyl)-3-oxa-1,7-diazaspiro[4.4]nonan-2-one] | 100%
14 | O=C1NC2(CCN(C(=O)c3sc4c(F)c(C(F)(F)F)ccc4c3Cl)C2)CO1 (stereo not shown) [Example 342, 7-((3-chloro-7-fluoro-6-(trifluoromethyl)-1-benzothiophen-2-yl)carbonyl)-3-oxa-1,7-diazaspiro[4.4]nonan-2-one] | 100%
15 | O=C1NC2(CCN(C(=O)c3sc4cc(C(F)(F)F)c(F)cc4c3Cl)C2)CO1 (stereo not shown) [Example 343, 7-((3-chloro-5-fluoro-6-(trifluoromethyl)-1-benzothiophen-2-yl)carbonyl)-3-oxa-1,7-diazaspiro[4.4]nonan-2-one] | 100%
16 | O=C1NC2(CO1)CN(C(=O)c1ccc(-c3cccc(C4(C(F)(F)F)CC4)c3)cc1)C2 [Example 344, 2-((3′-(1-(trifluoromethyl)cyclopropyl)biphenyl-4-yl)carbonyl)-7-oxa-2,5-diazaspiro[3.4]octan-6-one] | 99%
17 | O=C1NC2(CO1)CN(C(=O)c1sc3cc(-c4c(F)cccc4F)ccc3c1Cl)C2 [Example 345, 2-((3-chloro-6-(2,6-difluorophenyl)-1-benzothiophen-2-yl)carbonyl)-7-oxa-2,5-diazaspiro[3.4]octan-6-one] | 100%
18 | O=C1NC2(CO1)CN(C(=O)c1sc3cc(-c4ccccc4F)ccc3c1-c1ccccc1F)C2 [Example 346, 2-((3,6-bis(2-fluorophenyl)-1-benzothiophen-2-yl)carbonyl)-7-oxa-2,5-diazaspiro[3.4]octan-6-one] | 100%
19 | Cc1c(C(=O)N2CC3(COC(=O)N3)C2)sc2c(F)c(OC(F)(F)F)ccc12 [Example 347, 2-((7-fluoro-3-methyl-6-(trifluoromethoxy)-1-benzothiophen-2-yl)carbonyl)-7-oxa-2,5-diazaspiro[3.4]octan-6-one] | 100%
20 | O=C1NC2(CO1)CN(C(=O)[C@H]1C[C@H](OCc3ccc(Cl)cc3Cl)C1)C2 [Example 348, 2-((trans-3-((2,4-dichlorobenzyl)oxy)cyclobutyl)carbonyl)-7-oxa-2,5-diazaspiro[3.4]octan-6-one] | 100%
21 | O=C1NC2(CO1)CN(C(=O)[C@H]1C[C@@H](OCc3ccc(Cl)cc3Cl)C1)C2 [Example 349, 2-((cis-3-((2,4-dichlorobenzyl)oxy)cyclobutyl)carbonyl)-7-oxa-2,5-diazaspiro[3.4]octan-6-one] | 100%
22 | O=C1NC2(CO1)CN(C(=O)[C@H]1C[C@H](OCc3ccc(C(F)(F)F)cc3Cl)C1)C2 [Example 350, 2-((trans-3-((2-chloro-4-(trifluoromethyl)benzyl)oxy)cyclobutyl)carbonyl)-7-oxa-2,5-diazaspiro[3.4]octan-6-one] | 100%
23 | Cc1c(C(=O)N2CC3(COC(=O)N3)C2)sc2cc(-c3c(F)cccc3F)ccc12 [Example 351, 2-((6-(2,6-difluorophenyl)-3-methyl-1-benzothiophen-2-yl)carbonyl)-7-oxa-2,5-diazaspiro[3.4]octan-6-one] | 100%
24 | O=C1NC2(CO1)CN(C(=O)[C@H]1C[C@@H](OCc3ccc(C(F)(F)F)cc3Cl)C1)C2 [Example 352, 2-((cis-3-((2-chloro-4-(trifluoromethyl)benzyl)oxy)cyclobutyl)carbonyl)-7-oxa-2,5-diazaspiro[3.4]octan-6-one] | 100%
25 | O=C1NC2(CO1)CN(C(=O)[C@H]1C[C@@H](OCc3ccc(Cl)c(Cl)c3)C1)C2 [Example 353, 2-((cis-3-((3,4-dichlorobenzyl)oxy)cyclobutyl)carbonyl)-7-oxa-2,5-diazaspiro[3.4]octan-6-one] | 100%
26 | O=C1NC2(CO1)CN(C(=O)[C@H]1C[C@H](OCc3ccc(C(F)(F)F)cc3F)C1)C2 [Example 354, 2-((trans-3-((2-fluoro-4-(trifluoromethyl)benzyl)oxy)cyclobutyl)carbonyl)-7-oxa-2,5-diazaspiro[3.4]octan-6-one] | 100%
27 | Cc1ccc(CO[C@H]2C[C@@H](C(=O)N3CC4(COC(=O)N4)C3)C2)cc1Cl [Example 356, 2-((cis-3-((3-chloro-4-methylbenzyl)oxy)cyclobutyl)carbonyl)-7-oxa-2,5-diazaspiro[3.4]octan-6-one] | 100%
28 | Cc1cc(CO[C@H]2C[C@@H](C(=O)N3CC4(COC(=O)N4)C3)C2)ccc1Cl [Example 357, 2-((cis-3-((4-chloro-3-methylbenzyl)oxy)cyclobutyl)carbonyl)-7-oxa-2,5-diazaspiro[3.4]octan-6-one] | 100%
29 | Cc1cc(CO[C@H]2C[C@H](C(=O)N3CC4(COC(=O)N4)C3)C2)ccc1Cl [Example 358, 2-((trans-3-((4-chloro-3-methylbenzyl)oxy)cyclobutyl)carbonyl)-7-oxa-2,5-diazaspiro[3.4]octan-6-one] | 100%

Same assay, conditions: MAGL inhibitory rate, test compound 10 μM, 60 min preincubation, 2-arachidonylglycerol substrate; 10 µM

Row | Structure (SMILES) | % inhibition (10 μM)
30 | O=C1NC2(CCN(C(=O)c3sc4cc(Cl)cc(Cl)c4c3Cl)C2)CO1 (stereo not shown) [Example 327, 7-((3,4,6-trichloro-1-benzothiophen-2-yl)carbonyl)-3-oxa-1,7-diazaspiro[4.4]nonan-2-one] | 99%
31 | Cc1c(OC(F)(F)F)ccc2c(Cl)c(C(=O)N3CCC4(COC(=O)N4)C3)sc12 (stereo not shown) [Example 330, 7-((3-chloro-7-methyl-6-(trifluoromethoxy)-1-benzothiophen-2-yl)carbonyl)-3-oxa-1,7-diazaspiro[4.4]nonan-2-one] | 96%
